From patent publication US20150283227A1, “SYNTHETIC ENV PROTEINS” (priority 2012, published 2015)
Like-named read-outs stand apart in the source and are kept apart here. Where a SMILES comes first, the peptide text is derived from it. [ ]: non-standard residue; d: D form. The star is where a group is joined. ξ: configuration not given here. X1 = CC(=O)NC1C(O)[C@H](O)C(CO)O[C@H]1O[C@@H]1C(CO)O[C@@H](N*)C(NC(C)=O)C1O; Orn(CH(NH2)2) = NC(N)NCCC[C@H](N)C(=O)O; Ile(3ξ) = CCC(C)[C@H](N)C(=O)O; Thr(3ξ) = CC(O)[C@H](N)C(=O)O

How the values were obtained:
CH58 UCA = test: SPR binding to unmutated ancestor of CH58; set-up: species or system human; settings: Example 1
Procedure: (§1) Only the V1/V2 mAb CH58 bound to the glycan-deficient (aglycone) peptide (FIG. 9A). V1/V2 bNAbs ([…], CH01) bound weakly to V1/V2 GlcNAc2 peptide (FIG. 9B). In contrast, both bNAbs PG9 and CH01 bound avidly to the glycopeptides, V1/V2 Man3GlcNAc2 and V1/V2 Man5GlcNAc2 (FIGS. 9C and 9D). CH58 bound weakly to both glycopeptides. Each of the mAbs was captured on a human Fc specific IgG directly immobilized on a BIAcore CM5 sensor chip. Each of the V1/V2 peptides (3 min at 50 uL/min) was injected over the mAb captured surface and SPR binding was monitored on a BIAcore 3000 instrument. Non-specific binding of peptides was subtracted following measurement of signal on a surface with a control ant-RSV mab Synagis.
(§2) V1V2 glycopeptide binding Kd and rate constant measurements were carried out on BIAcore 3000 instruments as described earlier (Alam et al, Immunol. 178(7):4424-4435 (2007), Alam et al, J. Virol. 82(1):115-125 (2008)). Anti-human IgG Fc antibody (Sigma Chemicals) was immobilized on either a CM3 or CM5 (CM3 for kinetics and Kd determination) sensor chip (to minimize non-specific binding of peptides to chip matrix) to about 5000 Resonance Unit (RU) and each antibody was captured to about 100-200 RU on individual flow cells, in addition to one flow cell with the control Synagis mAb on the same sensor chip. Non-specific binding of V1V2 glycopeptide was double-referenced by substracting the control surface and blank buffer flow for each mAb-V1V2 glycopeptide binding interaction. […] SPR curve fitting analysis was performed using global fit of multiple titrations to the 1:1 Langmuir model. All data analysis was performed using the BIAevaluation 4.1 analysis software (GE Healthcare).

BnAb CH01 = test: SPR binding of V1V2 peptides/glycopeptides to captured mAb CH01; set-up: species or system human
V2 mAb CH58 = test: SPR binding of V1V2 peptides/glycopeptides to captured V2 mAb CH58; set-up: species or system human; settings: Example 6; peptide solubilized/oxidized in DMSO, 1-50 μg/mL
BnAb PG9 = assay type: binding, human
Procedure: V1V2 glycopeptide binding Kd and rate constant measurements were carried out on a BIAcore 3000 instrument using an anti-human Ig Fc capture assay as described earlier (Alam, S. M.; McAdams, M.; Boren, D.; Rak, M.; Scearce, R. M.; Gao, F.; Camacho, Z. T.; Gewirth, D.; Kelsoe, G.; Chen, P.; Haynes, B. F. J. Immunol. 2007, 178, 4424-4435.). Anti-human IgG Fc antibody (Sigma Chemicals) was immobilized on a CM5 sensor chip to about 10000 response units (RU), and each antibody was captured to about 300 RU. Anti-RSV Synagis mAb was captured on the same sensor chip as a control surface. Non-specific binding and drift in signal was double referenced by subtracting binding to the control surface and blank buffer flow for each of the peptide binding interactions. All curve-fitting analyses were performed using global fit of multiple titrations to the 1:1 Langmuir model. All data analysis was performed using the BIAevaluation 4.1 analysis software (GE Healthcare).

CH01 UCA = test: SPR binding to unmutated ancestor of CH01; set-up: species or system human
Procedure: as §1
(§3) The binding Kd (disassociation constant) of the UAs ranges from about 0.15 to 0.2 μM.
as §2

PG9 UCA = test: SPR binding to unmutated ancestor of PG9; set-up: species or system human
Procedure: as §1, §3, §2

V2 mAb CH59 = test: SPR binding of V1V2 peptides to captured V2 mAb CH59; set-up: species or system human; settings: Example 6; peptide oxidized by solubilization in DMSO, 50 ug/mL
Source text: FIGS. 42A-42D. Selective binding of V1V2 BnAbs to mannose derivatized V1V2 glycopeptides but not to aglycone or GlcNAc2 V1V2 peptides. SPR curves showing preferential binding of PG9 and CH01 BnAbs to Man5—(FIG. 42A) and Man3—(FIG. 42B) GlcNAc2 V1V2 glycopeptides but not to GlcNAc2 (FIG. 42C) and aglycone (FIG. 42D) peptides. By contrast, V2 mAbs CH58 and CH59 bound to both aglycone ([…]) and GlcNAc2 (FIG. 42D) V1V2 peptides. Each V1V2 peptide was oxidized by solubilization in DMSO and injected over the indicated MAb at 50 ug/mL. Data shown is after reference subtraction of non-specific signal measured over the control mAb (Synagis). Binding data are representative of at least three experiments for Man5 and Man3 V1V2 peptides and two experiments for GlcNAc2 and aglycone V1V2.
V1V2 glycopeptide binding Kd and rate constant measurements were carried out on BIAcore 3000 instruments as described earlier (Alam et al, Immunol. 178(7):4424-4435 (2007), Alam et al, J. Virol. 82(1):115-125 (2008)). Anti-human IgG Fc antibody (Sigma Chemicals) was immobilized on either a CM3 or CM5 (CM3 for kinetics and Kd determination) sensor chip (to minimize non-specific binding of peptides to chip matrix) to about 5000 Resonance Unit (RU) and each antibody was captured to about 100-200 RU on individual flow cells, in addition to one flow cell with the control Synagis mAb on the same sensor chip. […]

[1] = Circular dichroism analysis of V1V2 peptides; assay type: physicochemical; settings: dimerized in 20% DMSO-phosphate buffer about 20 h
Procedure: Circular dichroism (CD) spectra of V1/V2 peptides were measured on an Aviv model 202 spectropolarimeter using a 1 mm path length quartz cuvette. The 20% DMSO-treated peptides were dialyzed against 20 mM phosphate buffer, pH 7.0 to remove DMSO using a dialysis cassette of MW cut-off 3500 Da. The CD spectra of peptides (at 100 200 μg/ml concentration) in phosphate buffer (pH 7.4) were recorded at 25° C. Three scans of the CD spectra of each peptide were averaged and the CD signal from phosphate buffer was subtracted out.

[2] = Example 6, peptide solubilized/oxidized in DMSO, 50 μg/mL
[3] = glycans in the absence of the V2 peptide backbone
[4] = Example 5, peptides 200 μg/mL, glycans 25 μg/mL over captured PG9

## CCC(C)[C@H](NC(=O)[C@@H]1CCCN1C(=O)[C@@H](NC(=O)[C@@H](NC(=O)[C@H](CC(=O)O)NC(=O)[C@H](CC(C)C)NC(=O)[C@H](CCCCN)NC(=O)[C@H](Cc1ccc(O)cc1)NC(=O)[C@H](Cc1ccccc1)NC(=O)[C@H](CC(C)C)NC(=O)[C@H](C)NC(=O)[C@H](Cc1cnc[nH]1)NC(=O)[C@@H](NC(=O)[C@H](CCCCN)NC(=O)[C@H](CCC(N)=O)NC(=O)[C@H](CCCCN)NC(=O)[C@H](CCCCN)NC(=O)[C@H](CC(=O)O)NC(=O)[C@H](CCCNC(=N)N)NC(=O)[C@H](CC(C)C)NC(=O)[C@H](CCC(=O)O)NC(=O)[C@@H](NC(=O)[C@@H](NC(=O)[C@H](CCSC)NC(=O)[C@H](CC(=O)N[C@@H]1OC(CO)[C@@H](O[C@@H]2OC(CO)[C@@H](O)C(O)C2NC(C)=O)C(O)C1NC(C)=O)NC(=O)[C@H](Cc1ccccc1)NC(=O)[C@H](CO)NC(=O)[C@H](CS)NC(=O)[C@H](CC(=O)N[C@@H]1OC(CO)[C@@H](O[C@@H]2OC(CO)[C@@H](O)C(O)C2NC(C)=O)C(O)C1NC(C)=O)NC(=O)[C@H](CCCNC(N)N)NC(=O)[C@@H](NC(=O)[C@H](CCC(=O)O)NC(=O)[C@H](CC(=O)O)NC(=O)[C@@H](NC(=O)[C@@H](NC(C)=O)C(C)CC)C(C)O)C(C)C)C(C)O)C(C)O)C(C)C)C(C)CC)C(C)C)C(N)=O (stereo partly drawn) [GlcNAc2 V1V2] (Ac-[Ile(3ξ)][Thr(3ξ)]DEV[Orn(CH(NH2)2)]D(X1)CSFD(X1)M[Thr(3ξ)][Thr(3ξ)]ELRDKKQKVHALFYKLD[Ile(3ξ)]VP[Ile(3ξ)]-NH2)
CH58 UCA
  SPR binding to CH58 UA: no binding
BnAb CH01; Example 1, peptide injected over captured mAb
  SPR binding to CH01: bound weakly
BnAb CH01; [2]
  SPR binding to CH01: no binding
V2 mAb CH58
  SPR binding to CH58: retained
BnAb PG9; Example 1, peptide injected over mAb captured on anti-human Fc, BIAcore 3000
  SPR binding to PG9: bound weakly
BnAb PG9; Example 5, peptides 200 μg/mL, glycans 25 μg/mL over captured PG9, listed as 3
  SPR binding to PG9: did not bind
BnAb PG9; Example 5, peptides 200 μg/mL, glycans 25 μg/mL over captured PG9, listed as V1V2 GlcNAc2
  SPR binding to PG9: minimal to no binding
BnAb PG9; [2]
  SPR binding to PG9: no binding
CH01 UCA; Example 1
  SPR binding to CH01 UA: slow association indicating weak affinity interaction
CH01 UCA; Example 6
  SPR binding to CH01 UCA: neither UCAs bound
PG9 UCA; Example 1
  SPR binding to PG9 UA: no binding
PG9 UCA; Example 6
  SPR binding to PG9 UCA: neither UCAs bound
V2 mAb CH59
  SPR binding to CH59: bound
[1]
  β-strand (CD spectra deconvolution, K2D3): 17%

## CC(=O)NC1C(O)OC(CO)[C@@H](O[C@@H]2OC(CO)[C@@H](O[C@@H]3OC(CO[C@H]4OC(CO)[C@@H](O)[C@H](O)C4O)[C@@H](O)[C@H](O[C@H]4O[C@@H](CO)[C@@H](O)C(O)C4O)C3O)[C@H](O)C2NC(C)=O)[C@@H]1O (stereo partly drawn) [Man3GlcNAc2 glycan alone, [α-D-mannopyranosyl-(1→3)]-[α-D-mannopyranosyl-(1→6)]-β-D-mannopyranosyl-(1→4)-2-deoxy-2-N-acetyl-β-D-glucopyranosyl-(1→4)-2-deoxy-2-N-acetyl-D-glucopyranoside, reference compound]
BnAb CH01; [3]
  SPR binding to CH01: not detected
BnAb PG9; [4]
  SPR binding to PG9: minimal to no binding
BnAb PG9; Example 5, peptides 200 μg/mL, glycans 25 μg/mL over captured PG9, listed as Man3GlcNAc2 glycan
  SPR binding to PG9: not detected
BnAb PG9; Example 5, peptides 200 μg/mL, glycans 25 μg/mL over captured PG9, listed as Man3GlcNAc2 oligosaccharide
  SPR binding to PG9: not detected

## CC(=O)NC1C(O)OC(CO)[C@@H](O[C@@H]2OC(CO)[C@@H](O[C@@H]3OC(CO[C@H]4OC(CO[C@H]5OC(CO)[C@@H](O)[C@H](O)C5O)[C@@H](O)[C@H](O[C@H]5O[C@@H](CO)[C@@H](O)C(O)C5O)C4O)[C@@H](O)[C@H](O[C@H]4O[C@@H](CO)[C@@H](O)C(O)C4O)C3O)[C@H](O)C2NC(C)=O)[C@@H]1O (stereo partly drawn) [Man5GlcNAc2 glycan alone, reference compound]
BnAb CH01; [3]
  SPR binding to CH01: not detected
BnAb PG9; [4]
  SPR binding to PG9: minimal to no binding
BnAb PG9; Example 5, peptides 200 μg/mL, glycans 25 μg/mL over captured PG9, listed as Man5GlcNAc2 glycan
  SPR binding to PG9: not detected
